According to US6911444B2, “Non-steroidal IL-5 inhibitors, processes and intermediates for their preparation and pharmaceutical compositions comprising said inhibitors” (Janssen Pharmaceutics N.V., priority 1999, dated 2005):

melting point | Compound
174 °C | Cc1nc(C(C)(C)c2c(Cl)cc(-n3ncc(=O)[nH]c3=O)cc2Cl)sc1C(=O)c1ccccc1 [Compound 107]
157 °C | CCOC(=O)C(Cl)(Cl)c1ccccc1-c1nc(C(C)(C)c2c(Cl)cc(-n3ncc(=O)[nH]c3=O)cc2Cl)no1 [Compound 6]
88 °C | CCOP(=O)(COC(=O)c1sc(C(C)(C)c2c(Cl)cc(-n3ncc(=O)[nH]c3=O)cc2Cl)nc1-c1ccccc1)OCC
190 °C | CC(C)(c1nc(-c2ccccc2)c(CCC(=O)OC2CCOC2=O)s1)c1c(Cl)cc(-n2ncc(=O)[nH]c2=O)cc1Cl (centres unmarked) [Compound 81]
180 °C | CC(C)(c1nc(-c2ccccc2)c(C(=O)OCC(F)(F)F)s1)c1c(Cl)cc(-n2ncc(=O)[nH]c2=O)cc1Cl [Compound 78]
149 °C | Cc1oc(=O)oc1COC(=O)Cc1sc(C(C)(C)c2c(Cl)cc(-n3ncc(=O)[nH]c3=O)cc2Cl)nc1-c1ccccc1 [Compound 72]
126 °C | CC(C)(c1nc(-c2ccccc2)c(C(=O)OCCNS(=O)(=O)N2CCCCC2)s1)c1c(Cl)cc(-n2ncc(=O)[nH]c2=O)cc1Cl [Compound 77]
180 °C | C#CCOC(=O)c1sc(C(C)(C)c2c(Cl)cc(-n3ncc(=O)[nH]c3=O)cc2Cl)nc1-c1ccccc1 [Compound 88]
112 °C | CN1CCN(CCOC(=O)c2sc(C(C)(C)c3c(Cl)cc(-n4ncc(=O)[nH]c4=O)cc3Cl)nc2-c2ccccc2)S1(=O)=O [Compound 128]
88 °C | COCCOC(=O)OC(C)OC(=O)c1sc(C(C)(C)c2c(Cl)cc(-n3ncc(=O)[nH]c3=O)cc2Cl)nc1-c1ccccc1 (centres unmarked) [Compound 99]
112 °C | CON(C)C(=O)c1sc(C(C)(C)c2c(Cl)cc(-n3ncc(=O)[nH]c3=O)cc2Cl)nc1-c1ccccc1 [Compound 89]
97 °C | Cc1oc(=O)oc1CSC(=O)c1sc(C(C)(C)c2c(Cl)cc(-n3ncc(=O)[nH]c3=O)cc2Cl)nc1-c1ccccc1 [Compound 71]
175 °C | CC(C)(c1nc(-c2ccccc2)c(C(=O)OC2CCCC(O)C2)s1)c1c(Cl)cc(-n2ncc(=O)[nH]c2=O)cc1Cl (centres unmarked) [Compound 140]
100 °C | CC(C)(c1nc(-c2ccccc2)c(CSC2CCOC2=O)s1)c1c(Cl)cc(-n2ncc(=O)[nH]c2=O)cc1Cl (centres unmarked) [Compound 116]
80 °C | CCCCCCCCCCCCCCCOC(=O)Cc1sc(C(C)(C)c2c(Cl)cc(-n3ncc(=O)[nH]c3=O)cc2Cl)nc1-c1ccccc1 [Compound 2]
186 °C | CN(C)S(=O)(=O)N1CCN(CCO)CC1 [Compound 83]
208 °C | CC(C)(c1nc(-c2ccccc2)c(C(=O)OC2CCOC2=O)s1)c1c(Cl)cc(-n2ncc(=O)[nH]c2=O)cc1Cl (centres unmarked) [Compound 3]
146 °C | CCCC(=O)OCOC(=O)c1sc(C(C)(C)c2c(Cl)cc(-n3ncc(=O)[nH]c3=O)cc2Cl)nc1-c1ccccc1 [Compound 108]
220 °C | CN(C)S(=O)(=O)N1CCN(CCOC(=O)c2sc(C(C)(C)c3c(Cl)cc(-n4ncc(=O)[nH]c4=O)cc3Cl)nc2-c2ccccc2)CC1 [Compound 84]

melting point | Compound
212 °C | CC(=O)c1sc(C(C)(C)c2c(Cl)cc(-n3ncc(=O)[nH]c3=O)cc2Cl)nc1-c1ccccc1 [Compound 105]
130 °C | CC(C)(c1nc(-c2ccccc2)c(C(=O)OCOC(=O)C2CCCCC2)s1)c1c(Cl)cc(-n2ncc(=O)[nH]c2=O)cc1Cl [Compound 125]
130 °C | CC(C)(c1nc(-c2ccccc2)c(C(=O)OCC2COC(=S)O2)s1)c1c(Cl)cc(-n2ncc(=O)[nH]c2=O)cc1Cl (centres unmarked) [Compound 111]
172 °C | C=CCOC(=O)c1sc(C(C)(C)c2c(Cl)cc(-n3ncc(=O)[nH]c3=O)cc2Cl)nc1-c1ccccc1 [Compound 87]
180 °C | CC(C)(c1nc(-c2ccccc2)c(C(=O)OC2CCCC(OC(=O)c3sc(C(C)(C)c4c(Cl)cc(-n5ncc(=O)[nH]c5=O)cc4Cl)nc3-c3ccccc3)C2)s1)c1c(Cl)cc(-n2ncc(=O)[nH]c2=O)cc1Cl (centres unmarked) [Compound 139]
155 °C | CCOC(=O)CCc1sc(C(C)(C)c2c(Cl)cc(-n3ncc(=O)[nH]c3=O)cc2Cl)nc1-c1ccccc1 [Compound 80]
110 °C | CC(C)(c1nc(-c2cccs2)c(CC(=O)OC2CCOC2=O)s1)c1c(Cl)cc(-n2ncc(=O)[nH]c2=O)cc1Cl (centres unmarked) [Compound 5]
100 °C | COC(=O)C(CCCO)OC(=O)c1sc(C(C)(C)c2c(Cl)cc(-n3ncc(=O)[nH]c3=O)cc2Cl)nc1-c1ccccc1 (centres unmarked) [Compound 121]
154 °C | C[S+]([O-])CSC(=O)Cc1sc(C(C)(C)c2c(Cl)cc(-n3ncc(=O)[nH]c3=O)cc2Cl)nc1-c1ccccc1 (centres unmarked) [Compound 104]
196 °C | CC(C)(c1nc(-c2ccccc2)c(C(=O)OCCN2CCN(S(=O)(=O)N3CCCC3)CC2)s1)c1c(Cl)cc(-n2ncc(=O)[nH]c2=O)cc1Cl [Compound 146]
144 °C | CC(C)(c1nc(-c2ccccc2)c(C(=O)OC2COC(=O)C2O)s1)c1c(Cl)cc(-n2ncc(=O)[nH]c2=O)cc1Cl (centres unmarked) [Compound 131]
133 °C | CC(C)(c1nc(-c2ccccc2)c(C(=O)OCCN2CCN(S(N)(=O)=O)CC2)s1)c1c(Cl)cc(-n2ncc(=O)[nH]c2=O)cc1Cl [Compound 79]
110 °C | CC(OC(=O)c1sc(C(C)(C)c2c(Cl)cc(-n3ncc(=O)[nH]c3=O)cc2Cl)nc1-c1ccccc1)OC(=O)C(c1ccccc1)C1CCCC1 (centres unmarked) [Compound 141]
163 °C | CC1(C)OCC(COC(=O)c2sc(C(C)(C)c3c(Cl)cc(-n4ncc(=O)[nH]c4=O)cc3Cl)nc2-c2ccccc2)O1 (centres unmarked) [Compound 92]
72 °C | CC(C)(c1nc(-c2ccccc2)c(CC(=O)OC2CCOC2=O)s1)c1c(Cl)cc(-n2ncc(=O)[nH]c2=O)cc1Cl (centres unmarked) [Compound 1]
104 °C | CC(OC(=O)OCCS(C)(=O)=O)OC(=O)c1sc(C(C)(C)c2c(Cl)cc(-n3ncc(=O)[nH]c3=O)cc2Cl)nc1-c1ccccc1 (centres unmarked) [Compound 110]
151 °C | COCCOCCOC(=O)c1sc(C(C)(C)c2c(Cl)cc(-n3ncc(=O)[nH]c3=O)cc2Cl)nc1-c1ccccc1 [Compound 82]
212 °C | CC(C)(c1nc(-c2ccccc2)c(C(=O)SC2CCOC2=O)s1)c1c(Cl)cc(-n2ncc(=O)[nH]c2=O)cc1Cl (centres unmarked) [Compound 4]
150 °C | CN(C)S(=O)(=O)NCCOC(=O)c1sc(C(C)(C)c2c(Cl)cc(-n3ncc(=O)[nH]c3=O)cc2Cl)nc1-c1ccccc1 [Compound 76]
